Data as given in US11045833B2, “Task specific ionic liquid-impregnated polymeric surface coatings for antibacterial, antifouling, and metal scavenging activity” (Massachusetts Institute of Technology, priority 2017, dated 2021).

Experiments:
[1] = Desorption of polymer and ionic liquid from coated glass slides in water; assay type: physicochemical; settings: after a day in water
[2] = Ionic liquid leaching from ionogel by ICP mass spectrometry; assay type: physicochemical; settings: IL trapped in ionogel
[3] = test system: Pseudomonas aeruginosa; experiment: Biofilm formation in flow cell with CVD polymer coating, inoculated medium flowed through; assay type: cell-based; settings: IL encapsulated in CVD polymer film on flow cell; medium inoculated with P. aeruginosa
Description: Chemical vapor deposition (CVD) was used to cross-link a polymer and bind it to a flow cell surface using in a custom built vacuum reactor (Sharon Vacuum) previously described (Martin, T. P. et al. Biomaterials 2007, 28, 909-915; and Ozaydin-Ince, G. et al. J. Vac. Sci. Technol., A 2009, 27, 1135-1143). During CVD depositions, tert-butyl peroxide (TBPO) and monomers N,N-dimethylacrylamide ([…], FIG. 2A) and di(ethylene glycol) divinyl ether (DEGDVE, FIG. 2B) were introduced into the CVD reactor through mass flow controllers (1479 MFC, MKS Instruments). The grafting agent was trichlorovinylsilane (FIG. 2C), which covalently grafted the polymer network onto the surface via silanization. DMMA, which was the repeating unit in the polymer chains, was introduced into the chamber at a rate of about 2.8 mL/min. The crosslinker DEGDVE, which linked different polymer chains, was introduced into the chamber at a rate of 0.3 mL/min. The initiator TBPO was introduced into the chamber at a rate of about 1.0 mL/min. The substrate temperature was about 30° C., and the chamber pressure was about 400 mTorr. The ionic liquid was N-hexylethylenediaminium bis([…])amide, [HHex][Tf2N] (FIG. 1).
A flow cell had the bottom side CVD coated by the polymer as described in Example 2. One cell had the polymer film impregnated by an IL ([HHex][Tf2N]). […]

N-hexylethylenediaminium bis(trifluoroethanesulfonyl)amide [[HHex][Tf2N]]
desorption of polymer and ionic liquid [1]: have not desorbed | ionic liquid leaching over time [2]: lack of ionic liquid leaching over time | biofilm growth [3]: no biofilm growth
